Measurements: patent US7767659B2, “Synthesis of naturally occurring ecteinascidins and related compounds” (Pharma Mar, S.A., priority 2002, dated 2010)
Like-named read-outs stand apart in the source and are kept apart here.

Tests used:
[1] = Inhibition of cells growth by colorimetric assay (SRB); conditions: human
Procedure, shortened: (§1)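 Colorimetric SRB read (490 nm) on triplicate wells after 48 h at 37 °C, 5% CO2. Dose range 10 to 10^−8 μg/ml; 5×10^3 cells/well pre-attached 18 h.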

[2] = system: HMEC1; experiment: as above; conditions: for TGI H-MEC-1 / H-MEC-1 TGI: SRB, 48 hours exposure; for GI50: Homo sapiens, HMEC-1, 48 h
Procedure, shortened: as §1

[3] = system: HT-29; experiment: cells; conditions: Homo sapiens, HT-29, 48 h
Procedure, shortened: as §1

[4] = system: A-549; experiment: cells; conditions: Homo sapiens, A549, 48 h
Procedure, shortened: as §1

[5] = system: SW620; experiment: Inhibition of cells growth by colorimetric assay (SRB)
Procedure, shortened: as §1

[6] = system: SK-MEL-28; experiment: as above; conditions: Homo sapiens, SK-MEL-28, 48 h; for GI50: read-out: MEL-28 GI50; for CC50: read-out: MEL-28 LC50; for IC (TGI): read-out: MEL-28 TGI
Procedure, shortened: as §1

[7] = system: MDA-MB-231; experiment: as above
Procedure, shortened: as §1

[8] = system: DU-145; experiment: as above; conditions: Homo sapiens, DU-145, 48 h; for GI50: read-out: DU145 GI50; for CC50: read-out: DU145 LC50; for IC (TGI): read-out: DU145 TGI
Procedure, shortened: as §1

[9] = system: OVCAR-3; experiment: as above
Procedure, shortened: as §1

[10] = system: A-498; experiment: as above
Procedure, shortened: as §1

[11] = system: MCF-7; experiment: as above
Procedure, shortened: as §1

[12] = system: SK-BR-3; experiment: as above; conditions: Homo sapiens, SK-BR-3, 48 h
Procedure, shortened: as §1

[13] = system: PANC-1; experiment: as above; conditions: Homo sapiens, PANC-1, 48 h
Procedure, shortened: as §1

[14] = system: IGROV-ET; experiment: as above; conditions: Homo sapiens, 48 h
Procedure, shortened: as §1

[15] = system: LNCaP; experiment: as above; conditions: Homo sapiens, LNCaP, 48 h
Procedure, shortened: as §1

[16] = system: SK-OV-3; experiment: as above
Procedure, shortened: as §1

[17] = system: LoVo-Dox; experiment: as above; conditions: Homo sapiens, 48 h
Procedure, shortened: as §1

[18] = system: K-562; experiment: as above; conditions: Homo sapiens, K562, 48 h
Procedure, shortened: as §1

[19] = system: IGROV-1; experiment: as above; conditions: Homo sapiens, IGROV-1, 48 h
Procedure, shortened: as §1

[20] = system: LoVo; experiment: cells; conditions: Homo sapiens, LoVo, 48 h
Procedure, shortened: as §1

COc1cc2c(cc1O)CCN[C@]21CS[C@@H]2c3c(OC(C)=O)c(C)c4c(c3[C@H](COC1=O)N1C2C2N[C@@H](Cc3cc(C)c(OC)c(O)c32)[C@@H]1C#N)OCO4 (stereo partly drawn) [compound 15]
CC50 at 48 h [1]: 4.44 µM | TGI H-MEC-1 [2]: 1.32E−08 Molar | GI50 ([2]; read-out: GI50 H-MEC-1): 0.000556 µM | GI50 ([3]; read-out: GI50 HT29): 0.000484 µM | CC50 ([3]; read-out: LC50 HT29): 3.13 µM | IC (TGI) ([3]; read-out: TGI HT29): 0.00535 µM | GI50 ([4]; read-out: GI50 A549): 0.002 µM | CC50 ([4]; read-out: LC50 A549): 0.176 µM | IC (TGI) ([4]; read-out: TGI A549): 0.00735 µM

C=CCN1[C@@H]2c3c(cc(C)c(OC)c3O)C[C@H]1[C@H](C#N)N1C2[C@@H]2SC[C@]3(NCCc4cc(O)c(OC)cc43)C(=O)OC[C@H]1c1c3c(c(C)c(OC(C)=O)c12)OCO3 (stereo partly drawn) [compound 14]
CC50 at 48 h [1]: 12.5 µM | TGI H-MEC-1 [2]: 1.25E−05 Molar | GI50 ([2]; read-out: GI50 H-MEC-1): 3 µM | GI50 ([3]; read-out: GI50 HT29): 1.77 µM | CC50 ([3]; read-out: LC50 HT29): 12.5 µM | IC (TGI) ([3]; read-out: TGI HT29): 6.39 µM | GI50 ([4]; read-out: GI50 A549): 2.23 µM | CC50 ([4]; read-out: LC50 A549): 11.7 µM | IC (TGI) ([4]; read-out: TGI A549): 5.11 µM

COc1c(C)cc2c(c1O)C1C3[C@@H]4SCC(=O)C(=O)OC[C@@H](c5c6c(c(C)c(OC(C)=O)c54)OCO6)N3[C@@H](O)[C@H](C2)N1C (stereo partly drawn) [Et-594]
GI50 ([5]; Homo sapiens, SW-620, 48 h, read-out: SW-620 GI50): 0.0327 µM | CC50 ([5]; Homo sapiens, SW-620, 48 h, read-out: SW-620 LC50): 3.27 µM | SW-620 TGI ([5]; SW-620, SRB, 48 hours exposure): 9.80E−08 Molar | GI50 [6]: 0.0327 µM | CC50 [6]: 0.131 µM | IC (TGI) [6]: 0.0654 µM | GI50 ([7]; Homo sapiens, MDA-MB-231, 48 h, read-out: MB231 GI50): 0.0327 µM | CC50 ([7]; Homo sapiens, MDA-MB-231, 48 h, read-out: MB231 LC50): 1.63 µM | MB231 TGI ([7]; MB231, SRB, 48 hours exposure): 1.14E−07 Molar | GI50 [8]: 0.0327 µM | CC50 [8]: 0.163 µM | IC (TGI) [8]: 0.0817 µM | GI50 ([9]; Homo sapiens, OVCAR-3, 48 h, read-out: OVCAR GI50): 0.0327 µM | CC50 ([9]; Homo sapiens, OVCAR-3, 48 h, read-out: OVCAR LC50): 16.3 µM | OVCAR TGI ([9]; OVCAR, SRB, 48 hours exposure): 1.14E−07 Molar | A498 TGI ([10]; A498, SRB, 48 hours exposure): 3.27E−07 Molar | GI50 ([10]; Homo sapiens, A498, 48 h, read-out: A498 GI50): 0.0817 µM | CC50 ([10]; Homo sapiens, A498, 48 h, read-out: A498 LC50): 11.4 µM | GI50 ([11]; Homo sapiens, MCF7, 48 h, read-out: MCF GI50): 0.0327 µM | CC50 ([11]; Homo sapiens, MCF7, 48 h, read-out: MCF LC50): 3.27 µM | MCF TGI ([11]; MCF, SRB, 48 hours exposure): 9.80E−08 Molar | GI50 ([3]; read-out: HT29 GI50): 0.049 µM | CC50 ([3]; read-out: HT29 LC50): 1.63 µM | IC (TGI) ([3]; read-out: HT29 TGI): 0.098 µM | GI50 ([4]; read-out: A549 GI50): 0.049 µM | CC50 ([4]; read-out: A549 LC50): 0.654 µM | IC (TGI) ([4]; read-out: A549 TGI): 0.131 µM

COc1cc2c(cc1O)CCN[C@]21CS[C@@H]2c3c(OC(C)=O)c(C)c4c(c3[C@H](COC1=O)N1C[C@@H]3Cc5cc(C)c(OC)c(O)c5C(C21)N3C)OCO4 (stereo partly drawn) [Et-745]
CC50 at 48 h [1]: 13.4 µM | GI50 ([12]; read-out: SK-BR3 GI50): 0.629 µM | CC50 ([12]; read-out: SK-BR3 LC50): 13.4 µM | IC (TGI) ([12]; read-out: SK-BR3 TGI): 3.15 µM | GI50 ([13]; read-out: PANC-1 GI50): 1.32 µM | CC50 ([13]; read-out: PANC-1 LC50): 13.4 µM | IC (TGI) ([13]; read-out: PANC-1 TGI): 9.22 µM | GI50 ([14]; read-out: IGROV-ET GI50): 3.7 µM | CC50 ([14]; read-out: IGROV-ET LC50): 13.4 µM | IC (TGI) ([14]; read-out: IGROV-ET TGI): 8.45 µM | GI50 ([15]; read-out: LNCAP GI50): 0.652 µM | CC50 ([15]; read-out: LNCAP LC50): 9.81 µM | IC (TGI) ([15]; read-out: LNCAP TGI): 2.39 µM | GI50 [6]: 0.602 µM | CC50 [6]: 8.62 µM | IC (TGI) [6]: 2.21 µM | GI50 ([16]; Homo sapiens, SK-OV-3, 48 h, read-out: SK-OV3 GI50): 1.32 µM | CC50 ([16]; Homo sapiens, SK-OV-3, 48 h, read-out: SK-OV3 LC50): 13.4 µM | SK-OV3 TGI ([16]; SK-OV3, SRB, 48 hours exposure): 5.48E−06 Molar | GI50 ([17]; read-out: LOVO-DOX GI50): 6.25 µM | CC50 ([17]; read-out: LOVO-DOX LC50): 13.4 µM | IC (TGI) ([17]; read-out: LOVO-DOX TGI): 13.4 µM | H-MEC-1 TGI [2]: 3.67E−06 Molar | GI50 ([2]; read-out: H-MEC-1 GI50): 0.634 µM | GI50 ([18]; read-out: K562 GI50): 0.884 µM | CC50 ([18]; read-out: K562 LC50): 13.4 µM | IC (TGI) ([18]; read-out: K562 TGI): 3.9 µM | GI50 [8]: 0.488 µM | CC50 [8]: 13.4 µM | IC (TGI) [8]: 2.67 µM | GI50 ([19]; read-out: IGROV GI50): 0.774 µM | CC50 ([19]; read-out: IGROV LC50): 13.4 µM | IC (TGI) ([19]; read-out: IGROV TGI): 3.26 µM | GI50 ([3]; read-out: HT29 GI50): 0.522 µM | CC50 ([3]; read-out: HT29 LC50): 13.4 µM | IC (TGI) ([3]; read-out: HT29 TGI): 2.65 µM | GI50 ([4]; read-out: A549 GI50): 0.743 µM | CC50 ([4]; read-out: A549 LC50): 13.4 µM | IC (TGI) ([4]; read-out: A549 TGI): 4.77 µM | GI50 ([20]; read-out: LOVO GI50): 5.55 µM | CC50 ([20]; read-out: LOVO LC50): 13.4 µM | IC (TGI) ([20]; read-out: LOVO TGI): 13.4 µM

C=CCN1[C@@H]2c3c(cc(C)c(OC)c3O)C[C@H]1[C@H](C#N)N1C2[C@@H]2SCC(=O)C(=O)OC[C@H]1c1c3c(c(C)c(OC(C)=O)c12)OCO3 (stereo partly drawn) [compound 13]
CC50 at 48 h [1]: 15.4 µM | TGI H-MEC-1 [2]: 1.54E−05 Molar | GI50 ([2]; read-out: GI50 H-MEC-1): 4.74 µM | GI50 ([3]; read-out: GI50 HT29): 6.02 µM | CC50 ([3]; read-out: LC50 HT29): 15.4 µM | IC (TGI) ([3]; read-out: TGI HT29): 15.4 µM | GI50 ([4]; read-out: GI50 A549): 3.94 µM | CC50 ([4]; read-out: LC50 A549): 13.7 µM | IC (TGI) ([4]; read-out: TGI A549): 7.36 µM

C=CCN1[C@@H]2c3c(cc(C)c(OC)c3OCOCCOC)C[C@H]1[C@H](C#N)N1C2CC2(O)C(=O)C(C)=C3OCOC3=C2[C@@H]1COC(=O)[C@H](CSCC1c2ccccc2-c2ccccc21)NC(=O)OC(C)(C)C (stereo partly drawn) [compound 10]
CC50 at 48 h [1]: 7.63 µM | TGI H-MEC-1 [2]: 4.06E−06 Molar | GI50 ([2]; read-out: GI50 H-MEC-1): 2.15 µM | GI50 ([3]; read-out: GI50 HT29): 1010 µM | CC50 ([3]; read-out: LC50 HT29): 1010 µM | IC (TGI) ([3]; read-out: TGI HT29): 1010 µM | GI50 ([4]; read-out: GI50 A549): 1010 µM | CC50 ([4]; read-out: LC50 A549): 1010 µM | IC (TGI) ([4]; read-out: TGI A549): 1010 µM

COc1c(C)cc2c(c1O)[C@@H]1C3[C@@H]4SCC(=O)C(=O)NC[C@@H](c5c6c(c(C)c(OC(C)=O)c54)OCO6)N3[C@@H](C#N)[C@H](C2)N1C (stereo partly drawn) [compound 75]
CC50 at 48 h [1]: 16.1 µM | H-MEC-1 TGI [2]: 1.64E−06 Molar | GI50 ([2]; read-out: H-MEC-1 GI50): 0.279 µM | GI50 ([3]; read-out: HT29 GI50): 0.33 µM | CC50 ([3]; read-out: HT29 LC50): 16.1 µM | IC (TGI) ([3]; read-out: HT29 TGI): 0.933 µM | GI50 ([4]; read-out: A549 GI50): 0.889 µM | CC50 ([4]; read-out: A549 LC50): 12.7 µM | IC (TGI) ([4]; read-out: A549 TGI): 4.01 µM
